Consider 56 compounds from patent US20250326772A1, “MRGPRX2 ANTAGONISTS, PHARMACEUTICAL COMPOSITION INCLUDING MRGPRX2 ANTAGONIST, AND METHOD OF TREATING MRGPRX2-MEDIATED DISEASE OR DISORDER” (KYORIN PHARMACEUTICAL CO., LTD., priority 2024, published 2025).

The target of one experiment is T1, MRGPRX2 (Homo sapiens, UniProt Q96LB1).
T1 sequence (Q96LB1 1-330): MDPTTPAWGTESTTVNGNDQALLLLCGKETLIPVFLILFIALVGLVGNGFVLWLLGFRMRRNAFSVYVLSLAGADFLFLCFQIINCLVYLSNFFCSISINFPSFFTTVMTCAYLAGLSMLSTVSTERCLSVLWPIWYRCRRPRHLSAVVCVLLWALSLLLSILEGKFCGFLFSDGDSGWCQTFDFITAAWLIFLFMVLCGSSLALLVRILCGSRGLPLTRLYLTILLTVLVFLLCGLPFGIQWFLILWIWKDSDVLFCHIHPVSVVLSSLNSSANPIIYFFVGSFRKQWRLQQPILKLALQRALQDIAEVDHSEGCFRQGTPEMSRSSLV
In words: MRGPRX2 reporter cell assay (NFAT-RE luciferase, Substance P stimulation). The class given is cell-based. Particulars: U2OS cells stably transfected with MRGPRX2 and NFAT-RE luciferase reporter; Substance P at EC80. In outline:
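U2OS cells stably expressing MRGPRX2 and an NFAT-RE luc2P reporter, pre-incubated 30 min at 37° C with compound (0.5% DMSO), then stimulated with Substance P at EC80 for 6 h. Luminescence after ONE-GLO; percent inhibition fitted by four-parameter logistic to IC50.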
On the technique in general: Reporter assays use an easily measured gene product as a stand-in for the process of interest.
A word on the IC50: it is the concentration that gives 50% inhibition. Read a high IC50 as lower potency. `COC(=O)N[C@@H]1COc2c(-c3[nH]c4ncccc4c3-c3cn(C)nc3OC(F)F)c(C(F)F)nn2C1` [EX. 571] registered an IC50 of 1.2 nM.

Take `CCc1nn2c(c1-c1[nH]c3ncccc3c1-c1cn(C)nc1OC(F)F)OCCC2` [EX. 422]: the concentration for half-maximal inhibition (IC50) was found to be 5.8 nM.

Staying with this experiment, now noted: U2OS cells stably transfected with MRGPRX2 and NFAT-RE luciferase reporter; Substance P at EC80; class symbols.
With `Cn1cc(-c2c(-c3c(C(F)F)nn4c3OC[C@@H](NC(=O)OC3CCOC3)C4)[nH]c3ncccc23)c(OC(F)F)n1` (stereo partly shown) [EX. 566], the IC50 was less than 10 nM.

For `Cn1cc(-c2c(-c3c(C4CC4)nn4c3OCCC4)[nH]c3ncccc23)c(OC(F)F)n1` [EX. 420], the half-inhibitory concentration (IC50) is less than 10 nM.

In turn, `COC(=O)N[C@@H]1COc2c(-c3[nH]c4ncccc4c3-c3cn(C)nc3OC(F)F)c(C(F)F)nn2C1` [EX. 571] showed a concentration for half-maximal inhibition (IC50) of less than 10 nM.

As to `Cn1cc(-c2c(-c3c(C(F)F)nn4c3OC[C@@H](N)C4)[nH]c3ncsc23)c(OC(F)F)n1` [EX. 428, (S)-3-(6-(3-(difluoromethoxy)-1-methyl-1H-pyrazol-4-yl)-4H-pyrrolo[2,3-d]thiazol-5-yl)-2-(difluoromethyl)-6,7-dihydro-5H-pyrazolo[5,1-b] [1,3]oxazin-6-amine], the IC50 was less than 10 nM.

Turning to `[2H]C([2H])([2H])Oc1ccc(C#N)c(-c2c(-c3c(C)nn4cccnc34)[nH]c3ncccc23)c1` [EX. 236], the 50% inhibitory concentration (IC50) was less than 10 nM.

Turning to `Cc1ccc(F)c(-c2c(-c3cc(F)ccc3O)[nH]c3ncccc23)c1` [EX. 344], the IC50 was less than 10 nM.

`COc1ccc(C#N)c(-c2c(-c3c(C(F)F)nn4c3OC[C@@H](N)C4)[nH]c3ncccc23)c1` [EX. 363] had a half-maximal inhibitory concentration (IC50) of less than 10 nM.

In turn, `Cc1cc(-c2c(-c3c(C(F)F)nn4c3OC[C@@H](O)C4)[nH]c3ncccc23)c(Cl)s1` [EX. 479] showed an IC50 of less than 10 nM.

Take `COc1ccc(F)cc1-c1[nH]c2ncccc2c1-c1cn(C)nc1C(F)F` [EX. 292]: the IC50 fell in the range of 100 to 1000 nM.

Turning to `CCO[C@@H]1COc2c(-c3[nH]c4ncccc4c3-c3cn(C)nc3C#N)c(C(F)F)nn2C1` [EX. 502], the IC50 was less than 10 nM.

With `COC(=O)N(C)[C@@H]1COc2c(-c3[nH]c4ncccc4c3-c3cn(C)nc3OC(F)F)c(C(F)F)nn2C1` [EX. 578], the IC50 was less than 10 nM.

Regarding `Cn1cc(-c2c(-c3c(C(F)F)nn4c3OC[C@@H](OCC(C)(C)O)C4)[nH]c3ncccc23)c(C#N)n1` [EX. 501], the IC50 is less than 10 nM.

The compound `Cn1cc(-c2c(-c3c(C(F)F)nn4c3OC[C@@H](OC(F)F)C4)[nH]c3ncccc23)c(OC(F)F)n1` [EX. 529] gave an IC50 of less than 10 nM.

Consider `N#Cc1ccccc1-c1c(-c2c[nH]nc2OC(F)F)[nH]c2ncccc12` [EX. 157], for which the IC50 was less than 10 nM.

`CC(C)OC(=O)N[C@@H]1COc2c(-c3[nH]c4ncccc4c3-c3cn(C)nc3OC(F)F)c(C(F)F)nn2C1` [EX. 575] registered an IC50 of less than 10 nM.

In turn, `CCc1ccc(C#N)c(-c2c(-c3cn(C)nc3C(F)F)[nH]c3ncccc23)c1` [EX. 116] yielded an IC50 of less than 10 nM.

Regarding `Cc1nn2c(c1-c1[nH]c3ncccc3c1-c1cn(C)nc1OC(F)F)OC[C@@H](O)C2` [EX. 480, (S)-3-(3-(3-(difluoromethoxy)-1-methyl-1H-pyrazol-4-yl)-1 H-pyrrolo[2,3-b]pyridin-2-yl)-2-methyl-6,7-dihydro-5H-pyrazolo[5,1-b] [1,3]oxazin-6-ol], the IC50 was less than 10 nM.

`COC(=O)CO[C@@H]1COc2c(-c3[nH]c4ncccc4c3-c3cn(C)nc3OC(F)F)c(C(F)F)nn2C1` [EX. 530] had a half-maximal inhibitory concentration (IC50) of less than 10 nM.

Compound `COc1ccccc1-c1[nH]c2ncccc2c1-c1ccccc1C#N` [EX. 307] showed an IC50 of less than 10 nM.

The compound `N#Cc1cccnc1-c1c(-c2c(C(F)F)nn3c2OCCC3)[nH]c2ncccc12` [EX. 413] gave an IC50 of 100 to 1000 nM.

`COc1ccc(C#N)c(-c2c(-c3c(C)nn4c3OCC(NC(C)=O)C4)[nH]c3ncccc23)c1` (stereo not shown) [EX. 354, N-[3-[3-(2-cyano-5-methoxy-phenyl)-1H-pyrrolo[2,3-b]pyridin-2-yl]-2-methyl-6,7-dihydro-5H-pyrazolo[5,1-b] [1,3]oxazin-6-yl]acetamide]: the IC50 is less than 10 nM.

With `Cc1nn2c(c1-c1[nH]c3ncccc3c1-c1cn(C)nc1OC(F)F)OC[C@@H](NS(C)(=O)=O)C2` [EX. 547], the IC50 is less than 10 nM.

As for `CCc1nn2c(c1-c1[nH]c3ncccc3c1-c1cn(C)nc1OC(F)F)OCCC2` [EX. 422], the concentration for half-maximal inhibition (IC50) is less than 10 nM.

On to `FC(F)Oc1nocc1-c1c(-c2c(C(F)F)nn3c2OCCC3)[nH]c2ncccc12` [EX. 407], for which the IC50 was 10 to 100 nM.

On to `Cc1cc(-c2c(-c3c(C(F)F)nn4c3OCC4)[nH]c3ncccc23)c(C#N)s1` [EX. 433], for which the IC50 is less than 10 nM.

`Cn1cc(-c2c(-c3c(C(F)(F)F)nn4c3OCCC4)[nH]c3ncccc23)c(OC(F)F)n1` [EX. 528] displayed a 50% inhibitory concentration (IC50) of less than 10 nM.

`FC(F)Oc1ncccc1-c1c(-c2c(C(F)F)nn3c2OC[C@@H](F)C3)[nH]c2ncccc12` [EX. 437] came in with a half-inhibitory concentration (IC50) of less than 10 nM.

`Cc1cc(-c2c(-c3c(C)nn4c3OC[C@@H](OCCO)C4)[nH]c3ncccc23)c(C#N)s1` [EX. 504]: the IC50 is less than 10 nM.

`Cc1cc(-c2c(-c3c(C(F)F)nn4c3OC[C@@H](NS(C)(=O)=O)C4)[nH]c3ncccc23)c(C#N)s1` [EX. 525] returned a concentration for half-maximal inhibition (IC50) of less than 10 nM.

Consider `[2H]C([2H])([2H])Oc1ccc(C#N)c(-c2c(-c3c(C(F)F)nn4c3OC[C@H](O)C4)[nH]c3ncccc23)c1` [EX. 370], for which the IC50 is less than 10 nM.

`C[C@@]1(N)COc2c(-c3[nH]c4ncccc4c3-c3cccnc3OC(F)F)c(C(F)F)nn2C1` [EX. 490] returned an IC50 of less than 10 nM.

`FC(F)c1nn2c(c1-c1[nH]c3ncccc3c1-c1ccncc1C(F)(F)F)OCCC2` [EX. 412] displayed a 50% inhibitory concentration (IC50) of 10 to 100 nM.

With `CS(=O)(=O)N[C@@H]1COc2c(-c3[nH]c4ncccc4c3-c3ccncc3C#N)c(C(F)F)nn2C1` [EX. 523], the IC50 was less than 10 nM.

On to `COc1ccc(C#N)c(-c2c(-c3nn(C)cc3C(F)F)[nH]c3ncccc23)c1` [EX. 281], for which the IC50 is less than 10 nM.

In turn, `Cc1cc(-c2c(-c3c(C4CC4)nn4c3OC[C@@H](O)C4)[nH]c3ncccc23)c(C#N)s1` [EX. 460] yielded an IC50 of less than 10 nM.

`[2H]C([2H])([2H])Oc1ccc(C#N)c(-c2c(-c3c(C)nn4c3OC[C@@H](O)C4)[nH]c3ncccc23)c1` [EX. 366, 2-[2-[(6S)-6-hydroxy-2-methyl-6,7-dihydro-5H-pyrazolo[5,1-b] [1,3]oxazin-3-yl]-1H-pyrrolo[2,3-b]pyridin-3-yl]-4-(trideuteriomethoxy)benzonitrile] showed a half-inhibitory concentration (IC50) of less than 10 nM.

Compound `Cc1nn2c(c1-c1[nH]c3ncccc3c1-c1cccnc1OC(F)F)OC[C@@H](NC(=O)C1CC1)C2` [EX. 594, (S)—N-(3-(3-(2-(difluoromethoxy)pyridin-3-yl)-1H-pyrrolo[2,3-b]pyridin-2-yl)-2-methyl-6,7-dihydro-5H-pyrazolo[5,1-b] [1,3]oxazin-6-yl) cyclopropanecarboxamide] displayed a 50% inhibitory concentration (IC50) of less than 10 nM.

Compound `COc1ccc(C#N)c(-c2c(-c3c(C(F)F)nn4c3OCC4)[nH]c3ncccc23)c1` [EX. 243] showed a half-inhibitory concentration (IC50) of less than 10 nM.

In turn, `Cc1cc(-c2c(-c3c(C)nn4c3OC[C@@H](NC(=O)C3CC3)C4)[nH]c3ncccc23)c(C#N)s1` [EX. 505] displayed an IC50 of less than 10 nM.

As for `[2H]c1c([2H])c([2H])c(-c2[nH]c3nccc(F)c3c2-c2ccccc2C#N)c(O)c1[2H]` [EX. 45], the half-maximal inhibitory concentration (IC50) is less than 10 nM.

`COC(=O)N[C@@H]1COc2c(-c3[nH]c4ncccc4c3-c3cc(C)sc3C#N)c(C)nn2C1` [EX. 494] came in with an IC50 of less than 10 nM.

Consider `COc1ccc(C#N)c(-c2c(-c3cn(C)nc3C(F)F)[nH]c3ncccc23)c1` [EX. 113], for which the half-inhibitory concentration (IC50) is less than 10 nM.

Compound `Cc1nn2c(c1-c1[nH]c3ncccc3c1-c1cccnc1OC(F)F)OC[C@@H](O)C2` [EX. 496] yielded an IC50 of less than 10 nM.

On to `COc1ccc(C#N)c(-c2c(-c3c(OC)nn4cccnc34)[nH]c3ncccc23)c1` [EX. 225], for which the half-maximal inhibitory concentration (IC50) was less than 10 nM.

As to `Cn1cc(-c2c(-c3c(C(F)F)nn4c3OC[C@@H](NC(=O)C3CC(F)(F)C3)C4)[nH]c3ncccc23)c(OC(F)F)n1` [EX. 554], the half-inhibitory concentration (IC50) is less than 10 nM.

Compound `COc1ccc(C#N)c(-c2c(-c3c[nH]nc3C(F)F)[nH]c3ncccc23)c1` [EX. 96] had a half-inhibitory concentration (IC50) of less than 10 nM.

In the case of `Cc1ccc(F)c(-c2c(-c3cn(C)nc3C(F)F)[nH]c3ncccc23)c1` [EX. 133], the IC50 is less than 10 nM.

As for `Cc1ccc(C#N)c(-c2c(-c3cnn4cccnc34)[nH]c3ncccc23)c1` [EX. 100], the IC50 is less than 10 nM.

The compound `CO[C@@H]1COc2c(-c3[nH]c4ncccc4c3-c3cn(C)nc3OC(F)F)c(C)nn2C1` [EX. 541] registered an IC50 of less than 10 nM.

As to `OCCO[C@@H]1COc2c(-c3[nH]c4ncccc4c3-c3cccnc3OC(F)F)c(C(F)F)nn2C1` [EX. 495], the IC50 is less than 10 nM.

`Cn1cc(-c2c(-c3c(C(F)F)nn4c3OCCC4)[nH]c3ncccc23)c(C#N)n1` [EX. 401] came in with an IC50 of less than 10 nM.

`COc1ncc(F)cc1-c1c(-c2c(C(F)F)nn3c2OCCC3)[nH]c2ncccc12` [EX. 431] returned a half-maximal inhibitory concentration (IC50) of less than 10 nM.

As to `COc1ccc(C#N)c(-c2c(-c3c(C)nn4c3OCC(N)C4)[nH]c3ncccc23)c1` (stereo not shown) [EX. 355], the IC50 is less than 10 nM.

The compound `Cn1cc(-c2c(-c3c(C(F)F)nn4c3OC[C@@H](NC(=O)C(C)(C)O)C4)[nH]c3ncccc23)c(OC(F)F)n1` [EX. 587] returned a 50% inhibitory concentration (IC50) of less than 10 nM.

As for `N#Cc1nscc1-c1c(-c2c(C(F)F)nn3c2OCCC3)[nH]c2ncccc12` [EX. 403], the half-maximal inhibitory concentration (IC50) is less than 10 nM.

Turning to `COc1ccc(C#N)c(-c2c(-c3c(C(F)F)nn4c3OCC(NC(C)=O)C4)[nH]c3ncccc23)c1` (stereo not shown) [EX. 358], the half-inhibitory concentration (IC50) is less than 10 nM.
